According to US20110172217A1, “RING-FUSED MORPHOLINE DERIVATIVE HAVING PI3K-INHIBITING ACTIVITY” (Shionogi & Co., Ltd., priority 2008, published 2011):

Molecular target: PI-3 kinase γ (Homo sapiens, UniProt P48736)
Test: PI3Kγ inhibitory activity, PI3-kinase HTRF assay (inhibition ratio)
Format: biochemical
Conditions: 0.5 h, compound at 50 μmol/L
Description: For each compound synthesized in the above Examples, PI3Kγ inhibitory activity was measured.
The PI3Kγ inhibitory activity of a compound was evaluated using PI3-kinase HTRF™ assay (Millipore) according to the following procedure:
To each well of a testing plate, 5 μL of a compound solution containing 10% DMSO (200 μmol/L or 40 μmol/L as the concentration of the compound), 5 μL of a substrate solution (40 μmol/L phosphatidylinositol (4,5)-bisphosphate, 20 mmol/L MgCl2, 10 mmol/L DTT), and 5 μL of a enzyme solution (80 μg/mL PI-3 kinase γ, 10 mmol/L MgCl2, 5 mmol/L DTT) were added, and then allowed to stand for 10 minutes.
Then, 5 μL of a reaction solution (40 μmol/L ATP, 10 mmol/L MgCl2, 5 mmol/L DTT) was added thereto. After reacting for 30 minutes at room temperature, 5 μL of a solution containing EDTA and biotinylated phosphatidylinositol (3,4,5)-triphosphate were added to quench the reaction.
5 μL of a detection reagent containing a europium-labeled anti-GST antibody, the GST-tagged PH domain, and allophycocyanin-labeled streptavidin was added thereto. After 18 hours, HTRF (excitation wavelength: 330 nm, measured wavelengths: 620 nm and 665 nm) was measured.
HTRF ratio was defined as the value obtained by dividing the amount of fluorescence obtained at the measured wavelength 665 nm by the amount of fluorescence obtained at 620 nm. The HTRF ratio in the absence of a compound was defined as 100% activity and the HTRF ratio in the absence of PI-3 kinase γ was defined as 0% activity to calculate an inhibition ratio which was defined as the PI3Kγ inhibitory activity of a compound at 50 μmol/L or 10 μmol/L.

PI-3 kinase γ, sequence (P48736 whole entry): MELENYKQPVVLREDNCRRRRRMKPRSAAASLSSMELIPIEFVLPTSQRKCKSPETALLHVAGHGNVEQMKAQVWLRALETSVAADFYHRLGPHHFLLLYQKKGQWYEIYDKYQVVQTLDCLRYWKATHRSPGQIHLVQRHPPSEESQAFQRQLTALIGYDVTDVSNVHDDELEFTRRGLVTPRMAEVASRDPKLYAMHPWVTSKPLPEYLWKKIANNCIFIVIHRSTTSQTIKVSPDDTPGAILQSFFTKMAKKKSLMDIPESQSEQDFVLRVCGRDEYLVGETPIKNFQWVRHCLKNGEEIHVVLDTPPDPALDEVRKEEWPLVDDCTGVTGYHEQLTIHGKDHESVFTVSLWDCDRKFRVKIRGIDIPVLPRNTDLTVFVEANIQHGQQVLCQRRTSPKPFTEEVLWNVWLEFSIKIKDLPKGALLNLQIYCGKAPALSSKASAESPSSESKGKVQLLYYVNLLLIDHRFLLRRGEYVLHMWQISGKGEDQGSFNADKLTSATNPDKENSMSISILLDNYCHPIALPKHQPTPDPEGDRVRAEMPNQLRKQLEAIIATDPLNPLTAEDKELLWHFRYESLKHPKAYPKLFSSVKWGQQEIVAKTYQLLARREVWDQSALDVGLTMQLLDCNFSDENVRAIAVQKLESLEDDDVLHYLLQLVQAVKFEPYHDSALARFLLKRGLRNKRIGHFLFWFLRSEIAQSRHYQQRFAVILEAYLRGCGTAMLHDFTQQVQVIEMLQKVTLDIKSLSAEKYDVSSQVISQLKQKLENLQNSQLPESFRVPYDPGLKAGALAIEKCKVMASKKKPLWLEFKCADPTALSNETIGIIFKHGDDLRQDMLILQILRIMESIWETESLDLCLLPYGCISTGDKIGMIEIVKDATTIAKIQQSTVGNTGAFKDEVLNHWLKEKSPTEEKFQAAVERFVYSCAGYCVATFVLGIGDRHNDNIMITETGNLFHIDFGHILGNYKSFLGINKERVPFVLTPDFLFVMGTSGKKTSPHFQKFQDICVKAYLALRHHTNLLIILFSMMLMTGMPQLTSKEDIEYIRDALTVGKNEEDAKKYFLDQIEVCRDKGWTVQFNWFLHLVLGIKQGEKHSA

How did the inhibition at 50 µM turn out when O=C(Nc1ccccc1)N1CCOc2ccc(Nc3ccncc3)nc21 [Compound I-182] was run?
Its inhibition at 50 µM is at least 95%.

For C=CCC1(C)SC(N2CCOc3cccnc32)=NC1=O (centres unmarked) [Compound I-3], which inhibition at 50 µM is on record?
The inhibition at 50 µM was 80%.

Which inhibition at 50 µM does the source give for O=C(O)c1ccc(-c2ccc3c(n2)N(C(=O)NCCO)CCO3)cc1 [Compound I-205] here?
Its inhibition at 50 µM is at least 95%.

Which inhibition at 50 µM does the source give for N#Cc1ccc(Nc2cnc3c(c2)OCCN3C(=O)Nc2ccccc2)cc1 [Compound I-318] here?
Its inhibition at 50 µM is at least 95%.

O=C(Nc1ccccc1)N1CCOc2cc(-c3cc4ccccc4[nH]3)cnc21 [Compound I-282] was tested. Which inhibition at 50 µM did it give?
The inhibition at 50 µM was 74%.

With O=C(Nc1ccccc1)N1CCOc2ccc(C3CCCCC3)nc21 [Compound I-86] as the compound, how does the inhibition at 50 µM read?
Its inhibition at 50 µM is 82%.

For O=C(O)COc1ccc(Nc2cnc3c(c2)OCCN3C(=O)Nc2ccccc2)cc1 [Compound I-252], which inhibition at 50 µM is on record?
Its inhibition at 50 µM is at least 95%.

How did the inhibition at 50 µM turn out when COCOc1ccc(C(=O)OC)cc1Nc1ccc2c(n1)N(C(=O)Nc1ccccc1)CCO2 [Compound I-179] was run?
The inhibition at 50 µM was 79%.

For CC(C)(C)OC(=O)NCCOc1cccc(Nc2ccc3c(n2)N(C(=O)Nc2ccccc2)CCO3)c1 [Compound I-219], which inhibition at 50 µM is on record?
The inhibition at 50 µM was at least 95%.

How did the inhibition at 50 µM turn out when O=C(O)CNC(=O)c1cccc(Nc2ccc3c(n2)N(C(=O)Nc2ccccc2)CCO3)c1 [Compound I-277] was run?
Its inhibition at 50 µM is at least 95%.

How did the inhibition at 50 µM turn out when Cc1noc(C)c1-c1ccc2c(n1)N(C(=O)Nc1ccccc1)CCO2 [Compound I-100] was run?
Its inhibition at 50 µM is at least 95%.

For O=C(Nc1ccccc1)N1CCOc2cc(Nc3ccccc3)cnc21 [Compound I-132], which inhibition at 50 µM is on record?
The inhibition at 50 µM was 83%.

For CCN(CC)c1cc(F)cc(Nc2cnc3c(c2)OCCN3C(=O)Nc2ccccc2)c1 [Compound I-328], which inhibition at 50 µM is on record?
Its inhibition at 50 µM is 91%.

For CC(C)(C)NC(=O)c1ccccc1Nc1cnc2c(c1)OCCN2C(=O)Nc1ccccc1 [Compound I-315], which inhibition at 50 µM is on record?
The inhibition at 50 µM was 93%.

For CC(C)CCc1ccc2c(n1)N(C(=O)Nc1ccccc1)CCO2 [Compound I-88], which inhibition at 50 µM is on record?
Its inhibition at 50 µM is 91%.

Which inhibition at 50 µM does the source give for CC1(Cc2ccccc2)SC(N2CCOc3cccnc32)=NC1=O (centres unmarked) [Compound I-4] here?
Its inhibition at 50 µM is 84%.

How did the inhibition at 50 µM turn out when Cc1ccc(Nc2cnc3c(c2)OCCN3C(=O)Nc2ccccc2)cc1F [Compound I-319] was run?
Its inhibition at 50 µM is 92%.

Which inhibition at 50 µM does the source give for O=C(Nc1ccccc1)N1CCOc2ccc(/C=C/c3ccccc3)nc21 [Compound I-60] here?
The inhibition at 50 µM was 74%.

With COC(=O)c1ccc(Nc2ccc3c(n2)N(C(=O)Nc2ccccc2)CCO3)cc1 [Compound I-229] as the compound, how does the inhibition at 50 µM read?
Its inhibition at 50 µM is at least 95%.

For O=C(Nc1ccccc1)N1CCOc2ccc(-c3cccnc3)nc21 [Compound I-102], which inhibition at 50 µM is on record?
Its inhibition at 50 µM is 94%.

O=C(O)CC(=O)Nc1cnc2c(c1)OCCN2C(=O)Nc1ccccc1 [Compound I-161] was tested. Which inhibition at 50 µM did it give?
The inhibition at 50 µM was 88%.

NCCOc1cccc(Nc2ccc3c(n2)N(C(=O)Nc2ccccc2)CCO3)c1 [Compound I-222] was tested. Which inhibition at 50 µM did it give?
Its inhibition at 50 µM is at least 95%.

O=C(O)COc1cccc(Nc2cnc3c(c2)OCCN3C(=O)Nc2ccccc2)c1 [Compound I-241] was tested. Which inhibition at 50 µM did it give?
Its inhibition at 50 µM is at least 95%.

With O=C(Nc1ccccc1)N1CCOc2cc(Nc3ccc4ncccc4c3)cnc21 [Compound I-316] as the compound, how does the inhibition at 50 µM read?
The inhibition at 50 µM was 87%.

With CC(C)(C)OC(=O)N1CCN(c2cnc3c(c2)OCCN3C(=O)Nc2ccccc2)CC1 [Compound I-244] as the compound, how does the inhibition at 50 µM read?
The inhibition at 50 µM was 80%.

With C#CCC1(C)SC(N2CCOc3cccnc32)=NC1=O (centres unmarked) [Compound I-7] as the compound, how does the inhibition at 50 µM read?
The inhibition at 50 µM was 75%.

With O=C(O)COc1ccc(Nc2ccc3c(n2)N(C(=O)Nc2ccccc2)CCO3)cc1 [Compound I-224] as the compound, how does the inhibition at 50 µM read?
Its inhibition at 50 µM is at least 95%.

How did the inhibition at 50 µM turn out when CNC(=O)c1cnc2c(c1)OCCN2C(=O)Nc1ccccc1 [Compound I-303] was run?
The inhibition at 50 µM was 89%.

NC(=O)c1ccc(-c2ccc3c(n2)N(C(=O)Nc2ccccc2)CCO3)cc1 [Compound I-69] was tested. Which inhibition at 50 µM did it give?
The inhibition at 50 µM was 73%.

Which inhibition at 50 µM does the source give for O=C(Nc1ccccc1)N1CCOc2ccc(-c3ccoc3)nc21 [Compound I-101] here?
Its inhibition at 50 µM is at least 95%.

How did the inhibition at 50 µM turn out when COc1ccc(Nc2cnc3c(c2)OCCN3C(=O)Nc2ccccc2)cc1 [Compound I-313] was run?
Its inhibition at 50 µM is 92%.

With O=C(NC1CCCCC1)N1CCOc2cccnc21 [Compound I-17] as the compound, how does the inhibition at 50 µM read?
Its inhibition at 50 µM is 88%.

Which inhibition at 50 µM does the source give for O=C(Nc1ccccc1)N1CCOc2ccc(Nc3ccccc3)nc21 [Compound I-144] here?
Its inhibition at 50 µM is 81%.

Which inhibition at 50 µM does the source give for COC(=O)c1ccc(O)c(Nc2ccc3c(n2)N(C(=O)Nc2ccccc2)CCO3)c1 [Compound I-217] here?
Its inhibition at 50 µM is 77%.

O=C(O)CCNC(=O)c1cnc2c(c1)OCCN2C(=O)Nc1ccccc1 [Compound I-307] was tested. Which inhibition at 50 µM did it give?
Its inhibition at 50 µM is 92%.

For O=C(O)c1cccc(Nc2ccc3c(n2)N(C(=O)Nc2ccccc2)CCO3)c1 [Compound I-147], which inhibition at 50 µM is on record?
Its inhibition at 50 µM is at least 95%.

COC(=O)c1cncc(-c2ccc3c(n2)N(C(=O)Nc2ccccc2)CCO3)c1 [Compound I-249] was tested. Which inhibition at 50 µM did it give?
Its inhibition at 50 µM is at least 95%.

For COc1cccc(NC(=O)N2CCOc3nc(-c4ccc(C(=O)O)cc4)ccc32)c1 [Compound I-265], which inhibition at 50 µM is on record?
Its inhibition at 50 µM is 75%.

Nc1cnc2c(c1)OCCN2C(=O)Nc1ccccc1 [Compound I-148] was tested. Which inhibition at 50 µM did it give?
The inhibition at 50 µM was 94%.

How did the inhibition at 50 µM turn out when CCCc1ccc2c(n1)N(C(=O)Nc1ccccc1)CCO2 [Compound I-90] was run?
Its inhibition at 50 µM is 72%.

How did the inhibition at 50 µM turn out when COC(=O)c1cccc(Nc2ccc3c(n2)N(C(=O)Nc2ccccc2)CCO3)c1 [Compound I-232] was run?
The inhibition at 50 µM was at least 95%.

Which inhibition at 50 µM does the source give for CCOC(=O)N1CCC(NC(=O)N2CCOc3ccc(-c4ccc(C(=O)O)cc4)nc32)CC1 [Compound I-203] here?
The inhibition at 50 µM was at least 95%.

Which inhibition at 50 µM does the source give for O=C(Nc1ccccc1)N1CCOc2ccc(-c3ncco3)nc21 [Compound I-84] here?
The inhibition at 50 µM was 72%.

For CN1CCOc2cc(-c3ccc4c(n3)N(C(=O)Nc3ccccc3)CCO4)ccc21 [Compound I-77], which inhibition at 50 µM is on record?
The inhibition at 50 µM was 82%.

CC(C)(C)OC(=O)NCCOc1ccccc1Nc1ccc2c(n1)N(C(=O)Nc1ccccc1)CCO2 [Compound I-215] was tested. Which inhibition at 50 µM did it give?
Its inhibition at 50 µM is at least 95%.

For O=C(Nc1ccccc1)N1CCOc2cc(-c3ccnn3C3CCCCO3)cnc21 (centres unmarked) [Compound I-250], which inhibition at 50 µM is on record?
The inhibition at 50 µM was 91%.

O=C(O)c1ccc(-c2ccc3c(n2)N(C(=O)Nc2ccccc2)CCO3)cc1 [Compound I-51] was tested. Which inhibition at 50 µM did it give?
The inhibition at 50 µM was 93%.

S=C(Nc1cccnc1)N1CCOc2cccnc21 [Compound I-5] was tested. Which inhibition at 50 µM did it give?
The inhibition at 50 µM was 90%.

With O=C(Nc1ccccc1)N1CCOc2cc(NCc3ccccc3)cnc21 [Compound I-131] as the compound, how does the inhibition at 50 µM read?
Its inhibition at 50 µM is at least 95%.

O=C(Nc1ccccc1)N1CCOc2ccc(-c3ccncc3)nc21 [Compound I-107] was tested. Which inhibition at 50 µM did it give?
The inhibition at 50 µM was at least 95%.

With COCOc1ccc(C(=O)O)cc1NC(=O)c1ccc2c(n1)N(C(=O)Nc1ccccc1)CCO2 [Compound I-218] as the compound, how does the inhibition at 50 µM read?
Its inhibition at 50 µM is 87%.

CNC(=O)c1ccc(-c2ccc3c(n2)N(C(=O)Nc2ccccc2)CCO3)cc1 [Compound I-70] was tested. Which inhibition at 50 µM did it give?
The inhibition at 50 µM was 71%.

How did the inhibition at 50 µM turn out when O=C(O)CNC(=O)c1ccc(Nc2ccc3c(n2)N(C(=O)Nc2ccccc2)CCO3)cc1 [Compound I-278] was run?
The inhibition at 50 µM was at least 95%.

For O=C(O)c1ccc(NC(=O)c2ccc3c(n2)N(C(=O)Nc2ccccc2)CCO3)cc1 [Compound I-40], which inhibition at 50 µM is on record?
Its inhibition at 50 µM is 80%.

For CC(C)(C)OC(=O)COc1ccccc1Nc1ccc2c(n1)N(C(=O)Nc1ccccc1)CCO2 [Compound I-242], which inhibition at 50 µM is on record?
The inhibition at 50 µM was at least 95%.

CC(C)(C)OC(=O)COc1ccc(Nc2ccc3c(n2)N(C(=O)Nc2ccccc2)CCO3)cc1 [Compound I-213] was tested. Which inhibition at 50 µM did it give?
Its inhibition at 50 µM is at least 95%.

How did the inhibition at 50 µM turn out when CCOC(=O)CCc1ccc2c(n1)N(C(=O)Nc1ccccc1)CCO2 [Compound I-92] was run?
Its inhibition at 50 µM is at least 95%.

O=C(Nc1ccccc1)N1CCOc2cc(Nc3ccc(F)cc3Cl)cnc21 [Compound I-309] was tested. Which inhibition at 50 µM did it give?
Its inhibition at 50 µM is 90%.

How did the inhibition at 50 µM turn out when CC(=O)Nc1cnc2c(c1)OCCN2C(=O)Nc1ccccc1 [Compound I-173] was run?
Its inhibition at 50 µM is at least 95%.
